Values joined by “and” are separate entries in the source; they are usually repeats but may differ in a detail not shown here. Equal entries are not always repeated. Where two headings read alike, the source gives them in different places.
Tested on: rat cytochrome P450 3A
[1] = Table 2, 0.0001 wt. % component
[2] = Table 2, repeat 0.0001 wt. % (SD in parentheses)

SMILES	% inhibition of cyclosporine metabolism [1] [%]	% inhibition of cyclosporine metabolism (Table 2, 0.001 wt. % component) [%]	% inhibition of cyclosporine metabolism (Table 2, 0.01 wt. % component) [%]	other results
CC12CCC(CC1=O)C2(C)C (racemic) [Camphor-(±), 1,7,7-Trimethylbicyclo [2.2.1] heptan-2-one]				% inhibition of cyclosporine metabolism, repeat (microsomes, pH 7.4): 53 (3) %
C=CC(C)(O)CCC=C(C)C (racemic) [Linalool-(±), 3,7-Dimethyl-1,6-octadien-3-ol]	41	72.0	85	% inhibition of cyclosporine metabolism, repeat [2]: -7 (9) % and -5 (2) %
CCC=CCC1C(=O)CCC1CC(=O)OC (racemic) [Methyl Jasmonate-(±), Methyl-3-oxo-2-(2-pentenyl)-cyclopentane acetate]	-27	65		
C=C1C2CCC(C2)C1(C)C (single isomer, unassigned) [Camphene-(+), 2,2-Dimethyl-3-methylenebicyclo[2.2.1]heptane]	-49	12.4		
C=C(C)C1CC=C(C)C(O)C1 (single isomer, unassigned) [Carveol-(-), p-Mentha-6,8-dien-2-ol]	2	60		
CC=C(C)C=CC=C(C)C [Allo Ocimene, 2,6-Dimethyl-2,4,6-octatriene]	6	22		
C/C=C/c1ccc(OC)cc1 [Anethole, trans-, 4-Propenylanisole]		53	100	
O=C(/C=C/c1ccccc1)OCc1ccccc1 [Benzyl Cinnamate, Benzyl 3-phenylpropenoic acid]	7	-45		
COc1cc(CNC(=O)CCCC/C=C/C(C)C)ccc1O [Capsaicin, trans-8-Methyl-N-vanillyl-6 nonenamide]	27	68		
CC1=CCC2C(C1)C2(C)C (centres unmarked) [Carene-3-(Δ)]	-26	34		
Cc1ccc(C(C)C)cc1O [Carvacrol, 5-isoProply-2-methylphenol]	11	93	97	
C=C(C)[C@@H]1CC=C(C)C(=O)C1 [Carvone-(R)-(-), p-Mentha-6,8-dien-2-one]	27	69	100	
C=C(C)[C@H]1CC=C(C)C(=O)C1 [Carvone-(S)-(+), p-Mentha-6,8-dien-2-one]	30	70.5		
C=C1CC/C=C(\C)CC[C@@H]2[C@@H]1CC2(C)C [Caryophyllene, trans-(-), β Caryophyllene]	26	85		
O=C/C=C/c1ccccc1 [Cinnamic Aldehyde, trans-, 3-Phenylpropenaldehyde]		29.0	78	
CC(C)=CCC/C(C)=C/C=O [Citral]	44	54	99	
CC(C)=CCCC(C)CCO (stereo not drawn) [Citronellol-(DL)-(β), 3,7-Dimethyl-6-octen-1-ol]	41	86	95	% inhibition of cyclosporine metabolism, repeat [2]: 35 (4) %
C=CCc1ccc(OC)cc1 [Estragole, 4-Allylanisole]	7	69.2	100	
CCOC(=O)/C=C/c1ccccc1 [Ethyl Cinnamate, trans-, Ethyl 3-phenylpropenoic acid]	-13	-16		

SMILES	% inhibition of cyclosporine metabolism [1] [%]	% inhibition of cyclosporine metabolism (Table 2, 0.001 wt. % component) [%]	% inhibition of cyclosporine metabolism (Table 2, 0.01 wt. % component) [%]	other results
CCOc1cc(C=O)ccc1O [Ethyl Vanillin, 3-Ethoxy-4-hydroxybenzalehyde]			58	
C=CCc1ccc(O)c(OC)c1 [Eugenol, 4-Allyl-2-methoxyphenol]	9.8	66	100	
CC(C)=CCC/C(C)=C/CC/C(C)=C/CO [Farnesol, trans-, trans-, 3,7,11-Trimethyl-2,6,10-dodecatrien-1-ol]	49	82		
CC1(C)[C@H]2CC[C@](C)(C2)[C@H]1O [Fenchol-(1R)-endo-(+), 1,3,3-Trimethylbicyclo [2.2.1] heptan-2-ol]	18	74	100	
CC1(C)C(=O)[C@]2(C)CC[C@H]1C2 [Fenchone-(1R)-(-), 1,3,3-Trimethylbicyclo [2.2.1] heptan-2-one]	14	38		
CC(=O)OC/C=C(\C)CCC=C(C)C [Geranyl Acetate, trans-3,7-Dimethyl-2,6-octadien-1-yl acetate]		51.5	73	
CC/C=C\CC1=C(C)CCC1=O [Jasmone, cis-, 3-Methyl-2-(2-pentenyl)-2-cyclopenten-1-one]	16.0	68		
CC(=O)N1CCN(c2ccc(OCC3COC(Cn4ccnc4)(c4ccc(Cl)cc4Cl)O3)cc2)CC1 (centres unmarked) [Ketoconazole, reference compound]				% inhibition of cyclosporine metabolism (Table 3, 0.000001%): 8%; % inhibition of cyclosporine metabolism (Table 3, 0.000005%): 20%; % inhibition of cyclosporine metabolism (Table 3, 0.00001%): 42%; % inhibition of cyclosporine metabolism (Table 3, 0.00005%): 100%
C=C(C)[C@H]1CC=C(C)CC1 [Limonene-(R)-(+), p-Mentha-1,8-diene]		20	84	
C=C(C)[C@@H]1CC=C(C)CC1 [Limonene-(S)-(-), p-Mentha-1,8-diene]		30	82.3	
C=CC(C)(CCC=C(C)C)OC(C)=O (centres unmarked) [Linalyl Acetate, 3,7-Dimethyl-1,6-octadien-3-yl acetate]		55.8	100	
CC(C)[C@@H]1CC[C@@H](C)CC1=O [Menthone-(-), p-Menthan-3-one]	14	52		
COC(=O)c1ccccc1N [Methyl Anthranilate, Methyl 2-aminobenzoate]	-7	23		
C=CC(=C)CCC=C(C)C [Myrcene-β, 7-Methyl-3-methylene-1,6-octadiene]	0	13		
C=C1CC[C@H]2C[C@@H]1C2(C)C [Pinene-(1S)-(-)-β, 6,6-Dimethyl-2-methylenebicyclo[3.1.1]heptane]	-10	60	88	
CC(C)=C1CC[C@@H](C)CC1=O [Pulegone-(R)-(+), p-Menth-4(8)-en-3-one]	-17	31		
CC1=CCC(O)(C(C)C)CC1 (centres unmarked) [Terpinen-4-ol, p-Menth-1-en-4-ol]	3.81	80	100	
CC1=CC=C(C(C)C)CC1 [Terpinene-α, p-Mentha-1,3-diene]	-6	28		
CC1=CCC(C(C)(C)O)CC1 (stereo not drawn) [Terpineol-α, p-Menth-1-en-8-ol]	13.4	86	100	

Reference: patent US5665386A, “Use of essential oils to increase bioavailability of oral pharmaceutical compounds” (priority 1995, dated 1997)
